The source of these data is PubChem BioAssay (NCI).

Several values for one entry are separate records, joined by “and”; a condition that tells them apart may be missing. Identical values can stand only once.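 In this assay, cells in 96-well plates receive the compound at five concentrations for 48 hours. Endpoints are linearly interpolated between the surrounding concentrations. GI50 = concentration required for 50% inhibition of growth. TGI marks complete inhibition of growth.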

Test systems include SR leukemia; OVCAR-3 ovarian; SF-295 CNS; SK-MEL-28 melanoma; SNB-19 CNS; NCI-H460 lung; A498 renal; HOP-92 NSCLC; HCT-15 colon; LOX IMVI melanoma.
Holding throughout (test): growth of human tumour cells (NCI), 48 h

Take `CC1(C)COC(c2ccc(C(F)(F)F)cc2C(O)c2ccc3ccccc3c2)=N1` (stereo unspecified): the TGI was over 10 µM in the assay with SR leukemia; over 100 µM in the assay on OVCAR-3 ovarian; > 10 µM and 42.5 µM in the assay on SF-295 CNS; over 100 µM in the assay on SK-MEL-28 melanoma; over 100 µM in the assay on SNB-19 CNS; over 10 µM in the assay with NCI-H460 lung. The TGI in the assay on A498 renal, in the assay with HOP-92 NSCLC, in the assay on HCT-15 colon and with LOX IMVI melanoma was over 100 µM each time. Besides, the GI50 in the assay on OVCAR-3 ovarian is over 100 µM; in the assay on SF-295 CNS it was over 10 µM; in the assay with SK-MEL-28 melanoma, over 100 µM; with SNB-19 CNS it was over 10 µM; in the assay on A498 renal, over 100 µM; in the assay on HCT-15 colon it was over 100 µM. For the same compound, the GI50 in the assay with LOX IMVI melanoma was over 100 µM.
Turning to `Cc1nc2c(nc1C)C(=O)c1ccccc1C2=O`, the TGI in the assay on SR leukemia turned out to be 28.2 µM; in the assay on OVCAR-3 ovarian, 13.3 µM; in the assay with SF-295 CNS, 4.38 µM; in the assay with SK-MEL-28 melanoma, 4.76 µM; in the assay on SNB-19 CNS it was 19.4 µM; with NCI-H460 lung, 3.2 µM. The TGI amounted to 8.98 µM in the assay on A498 renal, 45 µM in the assay with HOP-92 NSCLC, 8.3 µM in the assay on HCT-15 colon and 7.11 µM in the assay with LOX IMVI melanoma.
For `O=C1C2=C(SCCS2)C(=O)c2ccccc21`, the TGI with SR leukemia is 5.33 µM; with OVCAR-3 ovarian, 3.08 µM; with SF-295 CNS, 3.14 µM; with SK-MEL-28 melanoma, 3.26 µM; in the assay with SNB-19 CNS, 2.87 µM; in the assay on NCI-H460 lung, 3.38 µM. Besides, the TGI with A498 renal was 3.65 µM; in the assay with HOP-92 NSCLC, 3.05 µM; with HCT-15 colon, 3.08 µM; with LOX IMVI melanoma, 2.27 µM.
For the compound `CC(=O)N1[C@H](C(=O)O)CS[C@H]1c1ccncc1`, the TGI in the assay with SR leukemia, with OVCAR-3 ovarian, in the assay with SF-295 CNS, in the assay on SK-MEL-28 melanoma, in the assay on SNB-19 CNS and in the assay on NCI-H460 lung was over 100 µM in each case. The TGI with A498 renal, with HOP-92 NSCLC, in the assay on HCT-15 colon and in the assay with LOX IMVI melanoma was over 100 µM each time.
For the compound `O=C(N/C(=C\c1cc(Cl)ccc1Cl)c1nc2[nH]c(=S)[nH]c(=O)c2[nH]1)c1ccccc1`, the TGI in the assay on SR leukemia was over 100 µM; in the assay with OVCAR-3 ovarian, over 100 µM; in the assay with SF-295 CNS it was over 100 µM; in the assay with SK-MEL-28 melanoma, over 83.5 µM; in the assay on SNB-19 CNS it was over 100 µM; with NCI-H460 lung, over 100 µM. Besides, the TGI with A498 renal is over 100 µM; with HOP-92 NSCLC, over 75.1 µM; in the assay with HCT-15 colon, over 51 µM; in the assay on LOX IMVI melanoma, 91.6 µM.
Turning to `COc1ccc(/C=C\c2cc(OC)c3c(c2)OCO3)c(O)c1O`, the TGI was over 41.5 µM in the assay with SR leukemia; 47.4 µM with OVCAR-3 ovarian; 36.8 µM with SF-295 CNS; 24.1 µM in the assay on SK-MEL-28 melanoma; 23.6 µM in the assay on SNB-19 CNS; 22.2 µM in the assay on NCI-H460 lung. Moreover, the TGI worked out at 31.2 µM with A498 renal, 16.1 µM in the assay with HOP-92 NSCLC, 59.8 µM in the assay on HCT-15 colon and 16.6 µM in the assay with LOX IMVI melanoma.
Consider `CN(C)c1ccc(-c2cc(-c3ccc(Nc4nc(Nc5ccc(Cl)cc5)nc(Nc5ccc(Cl)cc5)n4)cc3)no2)cc1`, for which the TGI is 1.74 µM in the assay with SR leukemia; 8.96 µM in the assay on OVCAR-3 ovarian; 43.8 µM in the assay on SF-295 CNS; 46.9 µM in the assay on SK-MEL-28 melanoma; over 100 µM with SNB-19 CNS; 12.3 µM with NCI-H460 lung. Further, the TGI is 22.7 µM with A498 renal, 10.6 µM in the assay on HOP-92 NSCLC, over 100 µM in the assay with HCT-15 colon and 35.6 µM in the assay with LOX IMVI melanoma. The GI50 is 3.42 µM in the assay on OVCAR-3 ovarian; 6.36 µM in the assay with SF-295 CNS; 6.49 µM in the assay with SK-MEL-28 melanoma; 18.7 µM in the assay with SNB-19 CNS; 3.03 µM with NCI-H460 lung; 4.38 µM in the assay with A498 renal. For the same compound, the figures for the GI50 in the assay on HOP-92 NSCLC, with HCT-15 colon and in the assay on LOX IMVI melanoma were 2.69 µM, 5.2 µM and 4.22 µM, respectively.
In the case of `O=C(Nc1ccc(F)cc1F)c1cc(I)ccc1O`, the GI50 is 3.05 µM in the assay with SR leukemia; 3.13 µM in the assay on OVCAR-3 ovarian; 1.95 µM with SF-295 CNS; 1.93 µM in the assay on SK-MEL-28 melanoma; 3.11 µM in the assay with SNB-19 CNS; 3.13 µM with NCI-H460 lung. Moreover, the GI50 with A498 renal was 1.45 µM; with HOP-92 NSCLC it was 1.2 µM; with HCT-15 colon, 3.27 µM; in the assay on LOX IMVI melanoma it was 3.31 µM. Also, the TGI was over 100 µM with SR leukemia; 23.2 µM in the assay with OVCAR-3 ovarian; 3.94 µM in the assay on SF-295 CNS; 6.84 µM with SK-MEL-28 melanoma; over 100 µM in the assay with SNB-19 CNS; over 100 µM in the assay on NCI-H460 lung. In addition, the TGI with A498 renal turned out to be 3.31 µM; in the assay on HOP-92 NSCLC, 4.65 µM; in the assay on HCT-15 colon, 45.5 µM; in the assay with LOX IMVI melanoma, 17.6 µM.
Take `O=C1/C(=C/c2ccc([N+](=O)[O-])cc2)COc2ccc(O)c(O)c21`: the GI50 was 0.463 µM with SR leukemia; 0.79 µM in the assay with OVCAR-3 ovarian; 2.21 µM in the assay on SF-295 CNS; 2.1 µM in the assay with SK-MEL-28 melanoma; 1.56 µM in the assay on SNB-19 CNS; 1.74 µM with NCI-H460 lung. For the same compound, the GI50 with A498 renal is 1.71 µM; in the assay with HOP-92 NSCLC, 1.99 µM; in the assay on HCT-15 colon, 0.606 µM; with LOX IMVI melanoma, 1.05 µM. Moreover, the TGI was over 100 µM in the assay on SR leukemia; 2.14 µM in the assay on OVCAR-3 ovarian; 5.17 µM with SF-295 CNS; 4.61 µM in the assay with SK-MEL-28 melanoma; 3.1 µM with SNB-19 CNS; 3.84 µM with NCI-H460 lung. Besides, the TGI with A498 renal turned out to be 3.91 µM; in the assay with HOP-92 NSCLC it was 4.96 µM; with HCT-15 colon, 3.55 µM; in the assay with LOX IMVI melanoma it was 2.29 µM.
